The subject of this assay is P388 leukemia ip, CD2F1 mice, survival T/C. The assay can be described thus: NCI In Vivo Anticancer Drug Screen. Data for tumor model P388 Leukemia (intraperitoneal) in CD2F1 (CDF1) mice. Particulars: endpoint: median survival time, higher = longer survival. An outline of the steps: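 Mice carrying the transplanted tumor received test compound or vehicle. Survival was recorded in each group, and the value is the treated-group measurement divided by that of the vehicle-treated control group.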

[1] abbreviates: dose: 60.0 mg/kg/injection, schedule: Q01DX005 (ip), vehicle: saline with Tween-80.
Setting [2] is: dose: 120.0 mg/kg/injection, schedule: Q01DX005 (ip), vehicle: saline with Tween-80.
The mark [3] stands for this setting: dose: 50.0 mg/kg/injection, schedule: Q01DX005 (ip), vehicle: saline.
[4] abbreviates: dose: 100.0 mg/kg/injection, schedule: Q01DX005 (ip), vehicle: saline.
Where [5] appears, read: dose: 12.5 mg/kg/injection, schedule: Q01DX009 (ip), vehicle: saline.
[6] abbreviates: dose: 100.0 mg/kg/injection, schedule: Q01DX001 (ip), vehicle: saline with Tween-80.
Where [7] appears, read: dose: 200.0 mg/kg/injection, schedule: Q01DX001 (ip), vehicle: saline with Tween-80.
Setting [8] is: dose: 100.0 mg/kg/injection, schedule: Q04DX003 (ip), vehicle: Klucel (hydroxypropylcellulose) (HPC).
The mark [9] stands for this setting: dose: 200.0 mg/kg/injection, schedule: Q04DX003 (ip), vehicle: Klucel (hydroxypropylcellulose) (HPC).
[10] abbreviates: dose: 400.0 mg/kg/injection, schedule: Q04DX003 (ip), vehicle: Klucel (hydroxypropylcellulose) (HPC).

From PubChem BioAssay AID330 (DTP/NCI, 2004) come the findings set out here.

“And” between values parts separate entries of the source, which are not always exact repeats. Equal values may be shown once. Toxic doses and inconclusive results are not listed.

As for `O=C1CCC(NC(=O)c2ccccc2)C(=O)N1` (configuration not stated), the T/C by setting is: (dose: 31.25 mg/kg/injection, schedule: Q01DX005 (ip), vehicle: Klucel (hydroxypropylcellulose) (HPC)) 102 % of control; under setting [1], 98 % of control; (dose: 62.5 mg/kg/injection, schedule: Q01DX005 (ip), vehicle: Klucel (hydroxypropylcellulose) (HPC)) 98 % of control; under setting [2], 107 % of control; (dose: 125.0 mg/kg/injection, schedule: Q01DX005 (ip), vehicle: Klucel (hydroxypropylcellulose) (HPC)) 102 % of control; (dose: 240.0 mg/kg/injection, schedule: Q01DX005 (ip), vehicle: saline with Tween-80) 100 % of control. Further, the T/C is, setting by setting: (dose: 250.0 mg/kg/injection, schedule: Q01DX005 (ip), vehicle: Klucel (hydroxypropylcellulose) (HPC)) 100 % of control; (dose: 500.0 mg/kg/injection, schedule: Q01DX005 (ip), vehicle: Klucel (hydroxypropylcellulose) (HPC)) 92 % of control.
In the case of `CC(=O)NCCSSSCCNC(C)=O`, the T/C is, setting by setting: under setting [3], 115 % of control; under setting [4], 115 % of control.
For the compound `CC(=O)c1c(O)c(C)c(O)c2c1OC1=CC(=O)C(C(C)=O)C(=O)C12C` (configuration not stated), the T/C runs as follows: (dose: 6.25 mg/kg/injection, schedule: Q01DX009 (ip), vehicle: saline with Tween-80) 100 % of control and 122 % of control; (dose: 12.5 mg/kg/injection, schedule: Q01DX009 (ip), vehicle: saline with Tween-80) 115 % of control and 97 % of control; under setting [5], 97 % of control; (dose: 25.0 mg/kg/injection, schedule: Q01DX009 (ip), vehicle: saline with Tween-80) 101 % of control and 103 % of control (2×); (dose: 50.0 mg/kg/injection, schedule: Q01DX009 (ip), vehicle: saline) 109 % of control and 111 % of control.
`CN(C)c1ccc(/C=N/NC(=O)c2ccccc2N)c(Cl)c1`: the T/C by setting is: under setting [1], 96 % of control; under setting [2], 89 % of control.
For `Cn1nc(C(N)=O)c2c(N)ncnc21`, the T/C runs as follows: (dose: 0.94 mg/kg/injection, schedule: Q01DX005 (ip), vehicle: saline with Tween-80) 105 % of control; (dose: 1.88 mg/kg/injection, schedule: Q01DX005 (ip), vehicle: saline with Tween-80) 92 % of control; (dose: 3.75 mg/kg/injection, schedule: Q01DX005 (ip), vehicle: saline with Tween-80) 104 % of control; (dose: 7.5 mg/kg/injection, schedule: Q01DX005 (ip), vehicle: saline with Tween-80) 91 % of control.
`CN1C(=O)NC(C)(c2cccc(N(CCCl)CCCl)c2)C1=O` (configuration not stated): the T/C by setting is: (dose: 50.0 mg/kg/injection, schedule: Q01DX009 (ip), vehicle: Klucel (hydroxypropylcellulose) (HPC)) 158 % of control; (dose: 100.0 mg/kg/injection, schedule: Q01DX009 (ip), vehicle: Klucel (hydroxypropylcellulose) (HPC)) 177 % of control; (dose: 200.0 mg/kg/injection, schedule: Q01DX009 (ip), vehicle: Klucel (hydroxypropylcellulose) (HPC)) 160 % of control and 205 % of control.
As for `OCC1OC(/C(N=Nc2ccccc2)=N\Nc2ccccc2)C(O)C1O` (configuration not stated), the T/C by setting is: (dose: 6.25 mg/kg/injection, schedule: Q01DX005 (ip), vehicle: saline with Tween-80) 99 % of control; (dose: 12.5 mg/kg/injection, schedule: Q01DX005 (ip), vehicle: saline with Tween-80) 89 % of control; (dose: 200.0 mg/kg/injection, schedule: Q01DX005 (ip), vehicle: saline with Tween-80) 97 % of control.
With `CC(C)(C)C(=O)CC(Cc1nccc2ccccc12)c1ccccc1` (configuration not stated), the T/C runs as follows: (dose: 50.0 mg/kg/injection, schedule: Q01DX009 (ip), vehicle: saline with Tween-80) 106 % of control; (dose: 100.0 mg/kg/injection, schedule: Q01DX009 (ip), vehicle: saline with Tween-80) 104 % of control; (dose: 200.0 mg/kg/injection, schedule: Q01DX009 (ip), vehicle: saline with Tween-80) 103 % of control.
For `O=C(Nc1ccc2c(c1)Cc1cc(NC(=O)C34CC5CC(CC(C5)C3)C4)ccc1-2)C12CC3CC(CC(C3)C1)C2`, the T/C (dose: 100.0 mg/kg/injection, schedule: Q04DX002 (ip), vehicle: saline with Tween-80) is 88 % of control; the T/C (dose: 200.0 mg/kg/injection, schedule: Q04DX002 (ip), vehicle: saline with Tween-80) is 89 % of control; the T/C (dose: 400.0 mg/kg/injection, schedule: Q04DX002 (ip), vehicle: saline with Tween-80) was 92 % of control.
With `CC(=O)ON(C(=O)c1ccc([N+](=O)[O-])cc1)c1ccc(C=O)cc1`, the T/C is 102 % of control under setting [6] and 101 % of control under setting [7].
Consider `Nc1ccc(O)cc1O`, for which the T/C was 98 % of control (dose: 1.56 mg/kg/injection, schedule: Q01DX009 (ip), vehicle: saline); 109 % of control (dose: 3.12 mg/kg/injection, schedule: Q01DX009 (ip), vehicle: saline); 106 % of control (dose: 6.25 mg/kg/injection, schedule: Q01DX009 (ip), vehicle: saline); 118 % of control and 119 % of control under setting [5].
Regarding `CC1=NN(C)C(=O)C1`, the T/C is, setting by setting: (dose: 50.0 mg/kg/injection, schedule: Q04DX003 (ip), vehicle: saline) 102 % of control; (dose: 100.0 mg/kg/injection, schedule: Q04DX003 (ip), vehicle: saline) 101 % of control; (dose: 200.0 mg/kg/injection, schedule: Q04DX003 (ip), vehicle: saline) 104 % of control; (dose: 400.0 mg/kg/injection, schedule: Q04DX003 (ip), vehicle: saline) 111 % of control.
Consider `CCC1CN2CCc3cc(OC)c(OC)cc3C2C/C1=C/C(=O)O` (configuration not stated), for which the T/C reads like this: (dose: 50.0 mg/kg/injection, schedule: Q01DX009 (ip), vehicle: suspension in saline) 95 % of control; (dose: 100.0 mg/kg/injection, schedule: Q01DX009 (ip), vehicle: suspension in saline) 92 % of control.
With `O=C=N[Si](c1ccccc1)(c1ccccc1)c1ccccc1`, the T/C under setting [6] was 96 % of control and the T/C under setting [7] is 89 % of control.
Regarding `CC(SC(C)(C)C)C(=O)SC(C)(C)C` (configuration not stated), the T/C by setting is: under setting [8], 102 % of control; under setting [9], 103 % of control; under setting [10], 105 % of control.
For the compound `CNC(=O)OC1/C(C)=C\C(C)C(O)C(OC)CC(C)CC2=C(OC)C(=O)C=C(C2=O)N(C)C(=O)/C(C)=C/C=C\C1OC` (configuration not stated), the T/C is, setting by setting: (dose: 3.12 mg/kg/injection, schedule: Q01DX009 (ip), vehicle: DMSO) 110 % of control and 98 % of control; (dose: 6.25 mg/kg/injection, schedule: Q01DX009 (ip), vehicle: DMSO) 99 % of control and 109 % of control and 110 % of control; (dose: 12.5 mg/kg/injection, schedule: Q01DX009 (ip), vehicle: DMSO) 104 % of control and 122 % of control and 123 % of control; (dose: 25.0 mg/kg/injection, schedule: Q01DX009 (ip), vehicle: DMSO) 109 % of control and 115 % of control and 122 % of control.
Regarding `CC(C)SC(=O)C[Si](C)(C)C`, the T/C (dose: 50.0 mg/kg/injection, schedule: Q04DX003 (ip), vehicle: saline with Tween-80) was 98 % of control and 101 % of control; the T/C (dose: 100.0 mg/kg/injection, schedule: Q04DX003 (ip), vehicle: saline with Tween-80) was 101 % of control and 104 % of control; the T/C (dose: 200.0 mg/kg/injection, schedule: Q04DX003 (ip), vehicle: saline with Tween-80) is 103 % of control and 105 % of control; the T/C (dose: 400.0 mg/kg/injection, schedule: Q04DX003 (ip), vehicle: saline with Tween-80) was 98 % of control.
For the compound `CCOC(C)(OCC)N(C)C`, the T/C runs as follows: under setting [3], 101 % of control; under setting [4], 108 % of control; (dose: 200.0 mg/kg/injection, schedule: Q01DX005 (ip), vehicle: saline) 111 % of control.
Turning to `O=C1c2ccccc2-c2ccc(N=Cc3c[nH]c4ccccc34)cc21`, the T/C is, setting by setting: (dose: 50.0 mg/kg/injection, schedule: Q01DX005 (ip), vehicle: saline + Tween-80 + alcohol) 104 % of control; (dose: 100.0 mg/kg/injection, schedule: Q01DX005 (ip), vehicle: saline + Tween-80 + alcohol) 98 % of control; (dose: 200.0 mg/kg/injection, schedule: Q01DX005 (ip), vehicle: saline + Tween-80 + alcohol) 98 % of control.
Regarding `O=C(O)Cc1ccc(N2N=C(c3ccccc3)CC2=O)cc1`, the T/C is 98 % of control under setting [1] and 92 % of control under setting [2].
As for `Nc1nnc(-c2ccc(Cl)c(Cl)c2)o1`, the T/C was 100 % of control under setting [8], 105 % of control under setting [9] and 115 % of control under setting [10].
For `CSc1ncc(CO)c(N)n1`, the T/C runs as follows: under setting [8], 90 % of control; under setting [9], 95 % of control; under setting [10], 95 % of control.
